From patent US7449447B2, “Peptidomimetic NS3-serine protease inhibitors of hepatitis C virus” (priority 2003, dated 2008)
*1 amine or outer side, *2 acyl side, *3 side chain or, on linkers, in order; H or OH if unused. Where a SMILES comes first, the peptide text is derived from it. [ ]: non-standard residue; d: D form. The star is where a group is joined. Pro(3R,4S-CMe2) = CC1(C)[C@@H]2[C@@H](C(=O)O)NC[C@@H]21; Abu(4,4-F2) = N[C@@H](CC(F)F)C(=O)O; Phg = N[C@H](C(=O)O)c1ccccc1; Tle = CC(C)(C)[C@H](N)C(=O)O; Boc = CC(C)(C)OC(=O)*; CO = O=C([*:1])[*:2]; NHtBu = CC(C)(C)N*; X2 = CC1(N*)CCCCC1

biological target: T1, HCV NS3/NS4a serine protease (Hepatitis C virus genotype 1b, UniProt P26663); assay: Spectrophotometric assay for HCV protease inhibitory activity (chromogenic ester substrates); assay type: biochemical, hepatitis C virus (strain 1b); conditions: Ki Rating, Table 2; single chain NS4A21-32-GSGS-NS3 3-181 protease, 30° C., pH 6.5
T1 construct: amino terminus of the NS3 protease domain (amino acids 3-181) with a tetrapeptide linker; made in house; host or cells: E. coli
Experimental: Spectrophotometric Assay: Spectrophotometric assays for the HCV serine protease were performed on the inventive compounds by following the procedure described by R. Zhang et al., Analytical Biochemistry, 270 (1999) 268-275, the disclosure of which is incorporated herein by reference. The assay based on the proteolysis of chromogenic ester substrates is suitable for the continuous monitoring of HCV NS3 protease activity.
HCV NS3 protease (strain 1b) and its NS4A cofactor were constructed as a recombinant single chain protein. The NS4A cofactor domain (amino acid residues 21-32) was fused in frame to the amino terminus of the NS3 protease domain (amino acids 3-181) with a tetrapeptide linker. This NS4A 21-32-GSGS-NS33-181 construct was then expressed in E. coli and purified to >90% homogeneity. Kinetic parameters were determined and found to be the same as that of the full length NS31-631/NS4A1-54 protein complex produced in the baculovirus system (D. L. Sali et al, Biochemistry, 37 (1998) 3392-340). The details of the cloning, expression, purification and kinetic analysis of the of the single chain recombinant protease have been previously described (S. S. Taremi, et al. Protein Science. 7 (1998) 2143-2149.
Protein concentrations were determined by the Biorad dye method using recombinant HCV protease standards previously quantified by amino acid analysis. Prior to assay initiation, the enzyme storage buffer (50 mM sodium phosphate pH 8.0, 300 mM NaCl, 10% glycerol, 0.05% lauryl maltoside and 10 mM DTT) was exchanged for the assay buffer (25 mM MOPS pH 6.5, 300 mM NaCl, 10% glycerol, 0.05% lauryl maltoside, 5 μM EDTA and 5 μM DTT) utilizing a Biorad Bio-Spin P-6 prepacked column.
Protease Assay: HCV protease assays were performed at 30° C. using a 200 μl reaction mix in a 96-well microtiter plate. Assay buffer conditions (25 mM MOPS pH 6.5, 300 mM NaCl, 10% glycerol, 0.05% lauryl maltoside, 5 μM EDTA and 5 μM DTT) were optimized for the NS3/NS4A heterodimer (D. L. Sali et al, ibid.)). Typically, 100 μl mixtures of buffer, substrate and inhibitor were placed in wells and allowed to preincubate at 30° C. for approximately 3 minutes. One hundred μls of pre-warmed protease (30° C.) in assay buffer, was then used to initiate the reaction to produce a final concentration of 1.3 nM HCV). The Substrate cleavage by the protease was monitored over 60 minutes by measuring the release of the phenylazophenol (PAP) product at an absorbance of 370 nm with a continuous read every 30 seconds using a SpectraMax Plus microtiter plate reader (Molecular Devices, Sunnyvale, Calif.). Background hydrolysis of the substrate was subtracted. Inhibitors were tested over a range of concentrations (final DMSO concentration 4%)
Evaluation of Inhibitors The inhibition constants (Ki) for the competitive inhibitors were determined experimentally at fixed concentrations of enzyme and substrate by plotting vo/vi vs. inhibitor concentration ([I]o) according to the rearranged Michaelis-Menten equation for competitive inhibition kinetics: vo/vi=1+[I]o/(Ki(1+[S]o/Km)), where vo is the uninhibited initial velocity, vi is the initial velocity in the presence of inhibitor at any given inhibitor concentration ([I]o) and [S]o is the substrate concentration used. The resulting data were fitted using linear regression and the resulting slope, 1/(Ki(1+[S]o/Km), was used to calculate the Ki value.

T1 sequence (P26663 1013-1207, looked up, natural form): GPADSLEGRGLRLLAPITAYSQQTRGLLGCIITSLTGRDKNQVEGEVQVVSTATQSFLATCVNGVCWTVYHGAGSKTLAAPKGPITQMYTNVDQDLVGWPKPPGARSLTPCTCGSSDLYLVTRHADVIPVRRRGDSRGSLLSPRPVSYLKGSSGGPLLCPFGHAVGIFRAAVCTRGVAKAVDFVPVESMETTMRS

SMILES | Ki
CC(C)[C@H](NC(=O)N[C@H](C(=O)N1C[C@@H]2OC(C)(C)C[C@@H]2[C@H]1C(=O)N[C@@H](CC(F)F)C(=O)NCCc1ccc(C(=O)O)cc1)C1CCCCC1)C(=O)OC(C)(C)C [Example 150] | > 500 nM
CC(C)[C@H](NC(=O)N[C@H](C(=O)N1C[C@H]2[C@@H]([C@H]1C(=O)N[C@@H](CC(F)F)C(N)=O)C2(C)C)C(C)(C)C)C(=O)O [Example 157] | > 500 nM
CN(C)C(=O)[C@@H](NC(=O)CNC(=O)[C@H](CC(F)F)NC(=O)[C@@H]1[C@@H]2[C@H](CN1C(=O)[C@@H](NC(=O)OC(C)(C)C)C(C)(C)C)C2(C)C)c1ccccc1 [Example 171] (Boc-[Tle][Pro(3R,4S-CMe2)][Abu(4,4-F2)]G[Phg]-NMe2) | > 500 nM
CC(C)[C@H](NC(=O)N[C@H](C(=O)N1C[C@H]2[C@@H]([C@H]1C(=O)NC(CC(F)F)C(=O)NCCc1ccccc1)C2(C)C)C(C)(C)C)C(=O)O (stereo partly shown) [Example 136] | 100 to 500 nM
CC(C)[C@H](NC(=O)N[C@H](C(=O)N1C[C@H]2[C@@H]([C@H]1C(=O)N[C@@H](CC(F)F)C(N)=O)C2(C)C)C(C)(C)C)C(=O)OC(C)(C)C [Example 164] | > 500 nM
COC(=O)c1ccc(CCNC(=O)[C@H](CC(F)F)NC(=O)[C@@H]2[C@@H]3[C@H](CN2C(=O)[C@@H](NC(=O)N[C@H](C(=O)OC(C)(C)C)C(C)(C)C)C(C)(C)C)C3(C)C)cc1 [Example 139] | 100 to 500 nM
CN(C)C(=O)[C@@H](NC(=O)CNC(=O)[C@H](CC(F)F)NC(=O)[C@@H]1[C@@H]2[C@H](CN1C(=O)[C@@H](NC(=O)NC1(C)CCCCC1)C(C)(C)C)C2(C)C)c1ccccc1 [Example 172] ({X2-CO}-[Tle][Pro(3R,4S-CMe2)][Abu(4,4-F2)]G[Phg]-NMe2) | > 500 nM
CC(C)(C)OC(=O)CCNC(=O)[C@H](CC(F)F)NC(=O)[C@@H]1[C@@H]2[C@H](CN1C(=O)[C@@H](NC(=O)OC(C)(C)C)C(C)(C)C)C2(C)C [Example 162] | > 500 nM
CN(C)C(=O)[C@@H](NC(=O)CNC(=O)[C@H](CC(F)F)NC(=O)[C@@H]1[C@@H]2[C@H](CN1C(=O)[C@@H](NC(=O)NC(C)(C)C)C(C)(C)C)C2(C)C)c1ccccc1 [Example 166] ({NHtBu-CO}-[Tle][Pro(3R,4S-CMe2)][Abu(4,4-F2)]G[Phg]-NMe2) | > 500 nM
CC(C)[C@H](NC(=O)N[C@H](C(=O)N1C[C@H]2[C@@H]([C@H]1C(=O)NC(CC(F)F)C(=O)NCCc1ccccc1)C2(C)C)C(C)(C)C)C(=O)OC(C)(C)C (stereo partly shown) [Example 140] | 100 to 500 nM

same assay, conditions: Ki, Table 1; single chain NS4A21-32-GSGS-NS3 3-181 protease, 30° C., pH 6.5

SMILES | Ki
CC(C)(C)[C@H](NC(=O)N[C@H](C(=O)N1C[C@H]2[C@@H]([C@H]1C(=O)N[C@@H](CC(F)F)C(=O)NCCc1ccc(C(=O)O)cc1)C2(C)C)C(C)(C)C)C(=O)O [Example 114] | 90 nM
CC(C)[C@@H](CN(C)S(=O)(=O)c1ccccc1)NC(=O)N[C@H](C(=O)N1C[C@H]2[C@@H]([C@H]1C(=O)N[C@@H](CC(F)F)C(=O)NCCc1ccc(C(=O)O)cc1)C2(C)C)C(C)(C)C [Example 112] | 50 nM

same assay, conditions: Ki, Table 3; rating; single chain NS4A21-32-GSGS-NS3 3-181 protease, 30° C., pH 6.5

SMILES | Ki
CC(CCc1ccccc1)NC(=O)[C@H](CC(F)F)NC(=O)[C@@H]1[C@@H]2[C@H](CN1C(=O)[C@@H](NC(=O)N[C@H](CN(C)S(C)(=O)=O)C(C)(C)C)C(C)(C)C)C2(C)C (stereo partly shown) [Example 225] | > 500 nM
CCOc1cc(CCNC(=O)[C@H](CC(F)F)NC(=O)[C@@H]2[C@@H]3[C@H](CN2C(=O)[C@@H](NC(=O)N[C@H](CN(C)S(C)(=O)=O)C(C)(C)C)C(C)(C)C)C3(C)C)ccc1OC [Example 286] | < 100 nM
CN(C[C@@H](NC(=O)N[C@H](C(=O)N1C[C@H]2[C@@H]([C@H]1C(=O)N[C@@H](CC(F)F)C(=O)NCCc1ccc(Br)cc1)C2(C)C)C(C)(C)C)C(C)(C)C)S(C)(=O)=O [Example 290] | < 100 nM
COc1cc(CCNC(=O)[C@H](CC(F)F)NC(=O)[C@@H]2[C@@H]3[C@H](CN2C(=O)[C@@H](NC(=O)N[C@H](CN(C)S(C)(=O)=O)C(C)(C)C)C(C)(C)C)C3(C)C)ccc1O [Example 294] | < 100 nM
COc1ccc(OC)c(CCNC(=O)[C@H](CC(F)F)NC(=O)[C@@H]2[C@@H]3[C@H](CN2C(=O)[C@@H](NC(=O)N[C@H](CN(C)S(C)(=O)=O)C(C)(C)C)C(C)(C)C)C3(C)C)c1 [Example 279] | 100 to 500 nM
CN(C[C@@H](NC(=O)N[C@H](C(=O)N1C[C@H]2[C@@H]([C@H]1C(=O)N[C@@H](CC(F)F)C(=O)NCCc1cccc(C(F)(F)F)c1)C2(C)C)C(C)(C)C)C(C)(C)C)S(C)(=O)=O [Example 282] | < 100 nM
CN(C[C@@H](NC(=O)N[C@H](C(=O)N1C[C@H]2[C@@H]([C@H]1C(=O)N[C@@H](CC(F)F)C(=O)NCCc1c(F)cccc1Cl)C2(C)C)C(C)(C)C)C(C)(C)C)S(C)(=O)=O [Example 275] | < 100 nM
CN(C[C@@H](NC(=O)N[C@H](C(=O)N1C[C@H]2[C@@H]([C@H]1C(=O)N[C@@H](CC(F)F)C(=O)N[C@@H]1c3ccccc3C[C@@H]1O)C2(C)C)C(C)(C)C)C(C)(C)C)S(C)(=O)=O [Example 247] | > 500 nM
CN(C[C@@H](NC(=O)N[C@H](C(=O)N1C[C@H]2[C@@H]([C@H]1C(=O)N[C@@H](CC(F)F)C(=O)NCCS(=O)(=O)C(C)(C)C)C2(C)C)C(C)(C)C)C(C)(C)C)S(C)(=O)=O [Example 253] | > 500 nM
CC1(C)CC(=O)N(C[C@@H](NC(=O)N[C@H](C(=O)N2C[C@H]3[C@@H]([C@H]2C(=O)N[C@@H](CC(F)F)C(=O)NCCc2c(F)cccc2F)C3(C)C)C(C)(C)C)C(C)(C)C)C(=O)C1 [Example 309] | < 100 nM
CCCOc1ccc(CCNC(=O)[C@H](CC(F)F)NC(=O)[C@@H]2[C@@H]3[C@H](CN2C(=O)[C@@H](NC(=O)N[C@H](CN(C)S(C)(=O)=O)C(C)(C)C)C(C)(C)C)C3(C)C)cc1Cl [Example 299] | < 100 nM
COc1ccc(CCNC(=O)[C@H](CC(F)F)NC(=O)[C@@H]2[C@@H]3[C@H](CN2C(=O)[C@@H](NC(=O)N[C@H](CN(C)S(C)(=O)=O)C(C)(C)C)C(C)(C)C)C3(C)C)cc1 [Example 271] | < 100 nM
CN(C[C@@H](NC(=O)N[C@H](C(=O)N1C[C@H]2[C@@H]([C@H]1C(=O)N[C@@H](CC(F)F)C(=O)NCCc1ccccc1F)C2(C)C)C(C)(C)C)C(C)(C)C)S(C)(=O)=O [Example 263] | < 100 nM
CN(C[C@@H](NC(=O)N[C@H](C(=O)N1C[C@H]2[C@@H]([C@H]1C(=O)N[C@@H](CC(F)F)C(=O)NCCc1ccc(Cl)cc1)C2(C)C)C(C)(C)C)C(C)(C)C)S(C)(=O)=O [Example 250] | < 100 nM
CC(Cc1ccc(Cl)cc1)NC(=O)[C@H](CC(F)F)NC(=O)[C@@H]1[C@@H]2[C@H](CN1C(=O)[C@@H](NC(=O)N[C@H](CN(C)S(C)(=O)=O)C(C)(C)C)C(C)(C)C)C2(C)C (stereo partly shown) [Example 296] | 100 to 500 nM
CN(C[C@@H](NC(=O)N[C@H](C(=O)N1C[C@H]2[C@@H]([C@H]1C(=O)N[C@@H](CC(F)F)C(=O)NCCc1ccncc1)C2(C)C)C(C)(C)C)C(C)(C)C)S(C)(=O)=O [Example 237] | < 100 nM
CN(C[C@@H](NC(=O)N[C@H](C(=O)N1C[C@H]2[C@@H]([C@H]1C(=O)N[C@@H](CC(F)F)C(=O)NCCc1ccc3c(c1)OCO3)C2(C)C)C(C)(C)C)C(C)(C)C)S(C)(=O)=O [Example 272] | < 100 nM
CN(C)CC(C)(C)CNC(=O)[C@H](CC(F)F)NC(=O)[C@@H]1[C@@H]2[C@H](CN1C(=O)[C@@H](NC(=O)N[C@H](CN(C)S(C)(=O)=O)C(C)(C)C)C(C)(C)C)C2(C)C [Example 241] | > 500 nM
CN(C[C@@H](NC(=O)N[C@H](C(=O)N1C[C@H]2[C@@H]([C@H]1C(=O)N[C@@H](CC(F)F)C(=O)NCCc1cccs1)C2(C)C)C(C)(C)C)C(C)(C)C)S(C)(=O)=O [Example 216] | < 100 nM
